In patent US20140364316A1, “COMPOSITION FOR IMPROVING RESISTANCE TO ENVIRONMENTAL STRESS OF PLANT AND METHOD FOR IMPROVING RESISTANCE TO ENVIRONMENTAL STRESS OF PLANT” (The Shizuoka Chamber of Commerce and Industry, priority 2012, published 2014):

Legend:
Arabidopsis thaliana = assay: Evaluation of high temperature resistance 2 (35° C. for 1 hour and 45° C. for 2 hours); format: in vivo; settings: 4th day after high temperature exposure
Experimental: As a sanguinarine reagent available on the market, a sanguinarine chloride hydrate (S5890-25MG manufactured by Sigma-Aldrich Japan K.K.) was obtained, the sanguinarine chloride hydrate was dissolved in water such that the sanguinarine concentration is 0.2 ppm, 2 ppm, or 20 ppm, and thus a sample liquid for each test plot was respectively prepared. In addition, as a sample liquid for the control plot, a 0.5% DMSO solution was prepared. By using these sample liquids, the following tests were performed.
Seeds of Arabidopsis thaliana were sowed and cultivated in a rockwool cube which had been saturated with a diluent of the HYPONEX (registered trademark) diluted by 1,000 times. The cultivation environment conditions were a cycle of [bright place for 16 hours+dark place for 8 hours], and a temperature of 22° C. On around the strain of Arabidopsis thaliana on the 14th day after the start of cultivation, a sample liquid composed of an aqueous sanguinarine solution that had been adjusted to various concentrations, and a 0.5% DMSO solution for the control plot were respectively applied dropwise using a dropper. The dropping amount was set to 100 μL per a plant body. Therefore, the sanguinarine amount applied per a plant body in each test plot was 0.02 μg in the test plot of 0.2 ppm, 0.2 μg in the test plot of 2 ppm, and 0.002 mg in the test plot of 20 ppm. After the dropping, under the initial cultivation environment conditions, the cultivation was continued for 2 days, then the room temperature was increased to 35° C., and exposure was performed for 1 hour in a bright place. Further, the room temperature was increased to 45° C., and high temperature exposure was performed for 2 hours in a dark place. […]
The state of the grown true leaves of Arabidopsis thaliana on the 4th day after the high temperature exposure under the above conditions was visually evaluated on a four level scale (index, 3: plant death, 2: partial plant death, 1: partial whitening, and 0: normal), and by assigning the values to the following equation, the average degree of damage was calculated. […]

rats = settings: Non Patent Literature 1; cited from earlier work

Question: What does the source list for `C[n+]1cc2c3c(ccc2c2ccc4cc5c(cc4c21)OCO5)OCO3` [sanguinarine]?
Answer: average degree of damage with increasing dosage (Arabidopsis thaliana; 0.2 ppm to 20 ppm, FIG. 4): average degree of damage of Arabidopsis thaliana is reduced; growth (appearance and average degree of damage) compared with control plot (0.5% DMSO solution) (Arabidopsis thaliana; sanguinarine 0.2 ppm, 2 ppm or 20 ppm, 100 μL per plant body, FIG. 3, FIG. 4): growth was relatively favorable; average degree of damage (Arabidopsis thaliana; sanguinarine 20 ppm (0.002 mg per plant body)): less than 10%; physiological disorders after administration (rats): disorders of particular note were not observed
